# According to US11419914B2 (Serenity Pharmaceuticals LLC, priority 2009, dated 2022):
# Where two headings read alike, the source gives them in different places.
# What was measured:
# clinical = details: human, in vivo, inhaled or intranasal
# Protocol: (§1) The open-label preliminary study of the effects and pharmacokinetics of the prototype dispensers was conducted with six male and six female healthy, water loaded, non-smoking volunteer subjects, following the protocol described generally below. In summary, each subject was dosed up to four times over a period of one week with dosing administered every other day. […] All subjects were screened prior to the first treatment, including evaluations of medical history, complete physical exam including nasopharyngeal exam, serum chemistry including serum osmolality, urinalysis including urine osmolality.
# On day one all subjects were asked to have his/her morning void prior to breakfast, and thereafter subjects started the water loading process. […] Insensible loss was not measured or replaced. […]
# Blood sampling for pharmacokinetic determinations was performed at 1, 1.5, 2, 3, 4 and 6 hours post dose. […] A plasma concentration value below the limit of quantitation (“LOQ”) followed by values above the limit was set at ‘LOQ/2’ for the analysis and for the descriptive statistics on concentrations. […]
# Assay values below the level of detection that occurred between two non-zero concentrations were considered to be “missing” for purposes of calculating the AUC. […] Accordingly, an average terminal half-life (Avg T1/2) was calculated for each subject that included a treatment with evaluable half-lives in that subject. […]
# [1] = system: human adult subjects in a water loaded state; test: Antidiuretic effect (urine output, urine osmolarity, duration) in water loaded subjects; format: in vivo
# Protocol: as §1
# On day one all subjects were asked to have his/her morning void prior to breakfast, and thereafter subjects started the water loading process. […] To achieve a steady state diuresis, the subjects were directed to drink a volume of water corresponding to at least 1.5% and up to 3% of body weight. The water loading process started about two hours prior to the dosing of the first subject. Subjects were asked to void every 20 minutes. To ensure continuous water loaded state, the subjects replaced their urinary output loss with an equivalent amount of fluid. Insensible loss was not measured or replaced. When the urinary output rate exceeded 10 ml/min in two consecutive measurements (defined as water loaded state) in the subjects, dosing began. Subjects were maintained in the water loaded state with equivalent fluid intake versus fluid loss.
# Other than the dose level, all procedures were the same as those described for day one.
# [2] = system: adult patients with nocturia; format: in vivo, human; details: 500 and 1000 ng (one or two sprays intranasally)
# Protocol: A second separate study in adult patients with nocturia established that doses of 500 and 1000 ng (one or two sprays administered intranasally) produced dramatic therapeutic decreases in the number of night time urinary voids equal to or less than one per night in 41 of 43 patients.
# [3] = in vivo, cited from earlier work
smiles,measurement,setting,value
"NC(=O)CC[C@@H]1NC(=O)[C@H](Cc2ccccc2)NC(=O)[C@H](Cc2ccc(O)cc2)NC(=O)CCSSC[C@@H](C(=O)N2CCC[C@H]2C(=O)N[C@H](CCCN=C(N)N)C(=O)NCC(N)=O)NC(=O)[C@H](CC(N)=O)NC1=O [desmopressin, 1-desamino-8-D-arginine vasopressin]",half-life,"clinical; both sexes, T1/2",1.13 ± 0.3 h
same,T1/2,clinical; both,1.33 ± 0.56 h
same,time urine osmolarity remained greater than about 400 mOsmol/Kg,[1]; after 2 μg nasally,about 250 minutes
same,period urine output remained less than 8 ml/minute,[1]; after 2000 ng nasally,up to 400 minutes
same,mean urine output,"[1]; within 20 minutes after 2000 ng nasally, water loaded men and women",less than 8 ml/minute
same,mean urine osmolarity,[1]; within 40 minutes after 2 μg nasally,greater than 400 mOsmol/kg
same,patients with night time urinary voids equal to or less than one per night,[2],41 of 43
same,bioavailability,"[3]; human, inhaled or intranasal",3-5%
same,half life,[3]; human,≥ 1.5 h
same,bioavailability,[3]; po,far less than one percent
